According to patent US5958770A, “Glycoalkaloids” (priority 1990, dated 1999):
Like-named read-outs stand apart in the source and are kept apart here.

Key:
[1] = tested on: lymphoblastoid cells (EBV transformed lymphocytes); assay: cells; conditions: for TR50 (thymidine ratio relative to ovarian cancer cells): LCL / OvCa
human fibroblasts = assay: cells; conditions: for TR50 (thymidine ratio relative to ovarian cancer cells): FB / OvCa
HeLa cells = assay: Solamargine cytotoxicity in presence and absence of carbohydrates, HeLa cells; type: cell-based, human; conditions: Homo sapiens, HeLa, solamargine 2.4 μM/L, read-out: Percentage Survival
Protocol: A mixture of solasodine glycosides (BEC), of which the active compound is solamargine and from which the aglycone solasodine is derived was prepared for use in cytotoxicity assays as determined by the uptake of tritiated thymidine. Inhibition studies were carried out with lactose, lactosyl-albumin, galactose or rhamnose (Sigma Chemical Co., USA). All experimental replicates were related to their own controls. Total volume of replicates was 250 μl (carbohydrates added in 50 μl tissue culture media+10% fetal calf serum), and the cell concentrations were 8×10^4 /ml.

Q: For C[C@@H]1CC[C@@]2(NC1)O[C@H]1C[C@H]3[C@@H]4CC=C5C[C@@H](O[C@@H]6O[C@H](CO)[C@@H](O[C@@H]7O[C@@H](C)[C@H](O)[C@@H](O)[C@H]7O)[C@H](O)[C@H]6O[C@@H]6O[C@@H](C)[C@H](O)[C@@H](O)[C@H]6O)CC[C@]5(C)[C@H]4CC[C@]3(C)[C@H]1[C@@H]2C [Solamargine, solamargine], which viability at 11.5 µM ([1]; Homo sapiens, Lymphoblastoid cell, read-out: Percentage Cell Survival) is on record?
A: 35 ± 4.2%

Q: What about the “TR50 (thymidine ratio relative to ovarian cancer cells)” value ([1]; listed as Solam) of the same compound?
A: 2.5

Q: And the “TR50 (thymidine ratio relative to ovarian cancer cells)” value ([1]; listed as solamargine)?
A: greater than 2

Q: And the IC50 ([1]; human gammaherpesvirus 4, LCL, read-out: LD50 (dose to inhibit 50% tritiated thymidine uptake))?
A: 3.95 µM

Q: And the “TR50 (thymidine ratio relative to ovarian cancer cells)” value (human fibroblasts; listed as Solam)?
A: 2.3

Q: And the “TR50 (thymidine ratio relative to ovarian cancer cells)” value (human fibroblasts; listed as solamargine)?
A: greater than 2

Q: And the IC50 (human fibroblasts; Homo sapiens, Fibroblast, read-out: LD50 (dose to inhibit 50% tritiated thymidine uptake))?
A: 3.65 µM

Q: And the viability at 11.5 µM (human fibroblasts; Homo sapiens, Fibroblast, read-out: Percentage Cell Survival)?
A: 23 ± 1.7%

Q: And the viability at 2.4 µM (HeLa cells; 1.1 μM/L galactose)?
A: 24 ± 2.2%

Q: And the viability at 2.4 µM (HeLa cells; 1.1 μM/L lactose)?
A: 24 ± 2.9%

Q: And the viability at 2.4 µM (HeLa cells; 1.1 μM/L rhamnose)?
A: 26 ± 2.1%

Q: And the viability at 2.4 µM (HeLa cells; no carbohydrate (first line))?
A: 25 ± 2.6%

Q: What about the viability at 2.4 µM (HeLa cells; no carbohydrate (second line, with rhamnose)) of the same compound?
A: 24 ± 4%
